In patent US9738634B2, “Heterocyclic amide compound and herbicide” (SYNGENTA PARTICIPATIONS AG, priority 2013, dated 2017):

Tests used:
Type in all cases: in vivo
Settings in all cases: treatment dosage 80 g/ha
black-grass [1] = assay: Test Example 3: weedkilling efficacy through soil treatment; H: black-grass
Outline: (§1)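 Crop and weed responses were judged three weeks after a uniform surface spray of the water-diluted emulsion at the given g/ha rate. Seeds sat beneath about 1.5 cm of sterilized diluvial soil, and boxes stood in a greenhouse at 25 to 30° C.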

Italian ryegrass [2] = assay: Test Example 3: weedkilling efficacy through soil treatment; I: Italian ryegrass
Outline: as §1

common wind-grass [3] = assay: Test Example 3: weedkilling efficacy through soil treatment; J: common wind-grass
Outline: as §1

wheat [4] = assay: Test Example 3: soil treatment, effect on crop; e: wheat
Outline: as §1

rapeseed [5] = assay: Test Example 3: soil treatment, effect on crop; g: rapeseed
Outline: as §1

black-grass [6] = assay: Test Example 4: weedkilling efficacy by foliar treatment; H: black-grass
Outline: (§2)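 Seeds are spot-sown into sterilized diluvial soil and covered with about 1.5 cm of soil. After 14 days' greenhouse growth at 25 to 30° C, plants are sprayed on stems and leaves with diluted emulsion at the stated g/ha rate, then scored at 3 weeks.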

Italian ryegrass [7] = assay: Test Example 4: weedkilling efficacy by foliar treatment; I: Italian ryegrass
Outline: as §2

common wind-grass [8] = assay: Test Example 4: weedkilling efficacy by foliar treatment; J: common wind-grass
Experimental: (§3) Testing of Weedkilling Efficacy by Foliar Treatment
(§4) Sterilized diluvial soil was introduced into 21 cm long, 13 cm wide, 7 cm deep plastic boxes, and seeds of crabgrass, green foxtail, barnyard grass, wild oat, black-grass, Italian ryegrass, common wind-grass, Indian mallow, redroot pigweed, fig-leafed goosefoot, chickweed, catchweed, birds-eye speedwell, corn, soybean, rice, wheat, beet and rapeseed were each spot-sown, and covered with about 1.5 cm of soil, then the plants were grown in a greenhouse at 25 to 30° C.
(§5) After they had grown for 14 days, emulsions of compounds of the present invention prepared according to compounding example 2 were diluted with water to give the specified dosages, and applied uniformly onto the stem and leaf parts with a small sprayer. 3 weeks after the pesticide treatment the effect on each type of plant was investigated on the basis of the assessment criteria of test example 1.
(§6) A: barnyard grass, B: bulrush, C: oval-leafed pondweed, D: crabgrass, E: green foxtail, F: barnyard grass, G: wild oat, H: black-grass, I: Italian ryegrass, J: common wind-grass, K: Indian mallow, L: redroot pigweed, M: fig-leafed goosefoot, N: chickweed, O: catchweed, p: birds-eye speedwell, a: transplanted rice, b: directly sown rice, c: corn, d: soybean, e: wheat, f: beet, g: rapeseed
(§7) Further, pesticide dosage (g/ha) indicates the concentration regulated such that treatment was with only the stated number of grams (g), when calculated per hectare (ha).

wheat [9] = assay: Test Example 4: foliar treatment, effect on crop; e: wheat
Outline: as §2

rapeseed [10] = assay: Test Example 4: foliar treatment, effect on crop; g: rapeseed
Experimental: as §3, §4, §5, §6, §7

Row | Structure (SMILES) | H (black-grass) weedkilling efficacy grade (black-grass [1]) | I (Italian ryegrass) weedkilling efficacy grade (Italian ryegrass [2]) | J (common wind-grass) weedkilling efficacy grade (common wind-grass [3]) | e (wheat) effect on crop grade (wheat [4]) | g (rapeseed) effect on crop grade (rapeseed [5]) | H (black-grass) weedkilling efficacy grade (black-grass [6]) | I (Italian ryegrass) weedkilling efficacy grade (Italian ryegrass [7]) | J (common wind-grass) weedkilling efficacy grade (common wind-grass [8]) | e (wheat) effect on crop grade (wheat [9]) | g (rapeseed) effect on crop grade (rapeseed [10])
1 | CC1=C(c2ccccc2)C(=O)N(C(C)(C)C(=O)Nc2cc(Cl)ccn2)CO1 [B-2-28] | 5 (weed kill ratio 90% or more, (practically complete withering)) | 5 (weed kill ratio 90% or more, (practically complete withering)) | 5 (weed kill ratio 90% or more, (practically complete withering)) | 0 (weed kill ratio 5% or less (practically no effect)) | 0 (weed kill ratio 5% or less (practically no effect)) | 5 (weed kill ratio 90% or more, (practically complete withering)) | 5 (weed kill ratio 90% or more, (practically complete withering)) | 5 (weed kill ratio 90% or more, (practically complete withering)) | 0 (weed kill ratio 5% or less (practically no effect)) | 3 (weed kill ratio 40% or more, less than 70%)
2 | CC1=C(c2ccccc2)C(=O)N(C(C)(C)C(=O)Nc2cc(C)ccn2)CO1 [B-2-52] | 4 (weed kill ratio 70% or more, less than 90%) | 5 (weed kill ratio 90% or more, (practically complete withering)) | 5 (weed kill ratio 90% or more, (practically complete withering)) | 0 (weed kill ratio 5% or less (practically no effect)) | 1 (weed kill ratio 5% or more, less than 20%) | 2 (weed kill ratio 20% or more, less than 40%) | 3 (weed kill ratio 40% or more, less than 70%) | 5 (weed kill ratio 90% or more, (practically complete withering)) | 0 (weed kill ratio 5% or less (practically no effect)) | 0 (weed kill ratio 5% or less (practically no effect))
